Experimental data as given in patent publication US20030032635A1, “Heterocyclic esters and amides” (priority 1996, published 2003).

Legend:
FKBP12 (FKBP) = FKBP12 (FKBP) (Homo sapiens, UniProt P62942); assay: Ki test procedure: inhibition of peptidyl-prolyl isomerase (rotamase) activity, chymotrypsin-coupled assay; assay type: biochemical; settings: apparent Ki, substrate N-succinyl-Ala-Ala-Pro-Phe-p-nitroanilide
Text: As discussed above, the compounds of the present invention have an affinity, for the FK506 binding protein, particularly FKBP12. The inhibition of the prolyl peptidyl cis-trans isomerase activity of FKBP may be measured as an indicator of this affinity.
Inhibition of the peptidyl-prolyl isomerase (rotamase) activity of the inventive compounds can be evaluated by known methods described in the literature (Harding, et al., Nature, 1989, 341:758-760; Holt et al. J. Am. Chem. Soc., 115:9923-9938). The cis-trans isomerization of an alanine-proline bond in a model substrate, N-succinyl-Ala-Ala-Pro-Phe-p-nitroanilide, is monitored spectrophotometrically in a chymotrypsin-coupled assay, which releases paranitroanilide from the trans form of the substrate. The inhibition of this reaction caused by the addition of different concentrations of inhibitor is determined, and the data is analyzed as a change in first-order rate constant as a function of inhibitor concentration to yield the apparent Ki values. […]
The absorbance at 390 nm versus time is monitored for 90 seconds using a spectrophotometer and the rate constants are determined from the absorbance versus time data files. […]

[1] = system: chick dorsal root ganglia (sensory neurons); assay: Chick dorsal root ganglion cultures and neurite outgrowth; assay type: cell-based
Protocol: Dorsal root ganglia were dissected from chick embryos of ten day gestation. Whole ganglion explants were cultured on thin layer Matrigel-coated 12 well plates with Liebovitz L15 plus high glucose media supplemented with 2 mM glutamine and 10% fetal calf serum, and also containing 10 μM cytosine β-D arabinofuranoside (Ara C) at 37° C. in an environment containing 5% CO2. Twenty four hours later, the DRGs were treated with various immunophilin ligands. Forty-eight hours after drug treatment, the ganglia were visualized under phase contrast or Hoffman Modulation contrast with a Zeiss Axiovert inverted microscope. Photomicrographs of the explants were made, and neurite outgrowth was quantitated. Neurites longer than the DRG diameter were counted as positive, with total number of neurites quanitated per each experimental condition. Three to four DRGs are cultured per well, and each treatment was performed in duplicate.
The data for these experiments for representative compounds are presented in the “ED50” column of Table III.

Sequence of FKBP12 (FKBP) (P62942 whole entry, species assumed): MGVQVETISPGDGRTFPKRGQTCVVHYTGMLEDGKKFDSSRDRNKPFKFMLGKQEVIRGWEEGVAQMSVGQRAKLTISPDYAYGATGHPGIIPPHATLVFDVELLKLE

Row | SMILES | Ki (FKBP12 (FKBP)) | neurite outgrowth in sensory neurons (photomicrograph) ([1]; 10 pM) | neurite outgrowth in sensory neurons (photomicrograph) ([1]; 100 pM) | neurite outgrowth in sensory neurons (photomicrograph) ([1]; 10 nM) | neurite outgrowth in sensory neurons (photomicrograph) ([1]; 1 pM)
1 | CCC(C)(C)C(=O)C(=O)N1CSCC1C(=O)OCCCc1cccnc1 [Compound 2, 3-(3-pyridyl)-1-propyl(2S)-1-(3,3-dimethyl-1,2-dioxopentyl) -2-(4-thiazolidine) carboxylate] | 638 nM | promoting neurite outgrowth | promoting neurite outgrowth | promoting neurite outgrowth | 
2 | CCC(C)(C)C(=O)C(=O)N1CSCC1C(=O)OCCCc1ccccc1 [Compound 1, 3-phenyl-1-propyl(2S)-1-(3,3-dimethyl-1,2-dioxopentyl)-2-(4-thiazolidine)carboxylate] | 215 nM | promoting neurite outgrowth | promoting neurite outgrowth |  | promoting neurite outgrowth
